Assay results reported in ChEMBL document CHEMBL2434852, “Synthesis, cytotoxicity and DNA binding of oxoazabenzo[de]anthracenes derivatives in colon cancer Caco-2 cells” (Eur J Med Chem, 2013).
Calls of active or inactive are those of the source. The calls are words filed in the database; no cut-off is given here.

What was measured:
DNA [1] = experiment: Displacement of ethidium bromide from calf thymus DNA assessed as fluorescence quenching by fluorometric assay; format: nucleic-acid assay; conditions: Bos taurus
DNA [2] = experiment: Binding affinity to calf thymus DNA assessed as melting temperature at 10 uM by UV-Vis spectrophotometer analysis; format: nucleic-acid assay; conditions: Bos taurus
Caco-2 [3] = experiment: Cytotoxicity against human Caco2 cells up to 40 uM after 24 hrs by MTT assay; format: functional, cell-based
Caco-2 [4] = experiment: Cytotoxicity against human Caco2 cells after 72 hrs by MTT assay; format: functional, cell-based; conditions: for IC50: Caco-2, 72 h
Escherichia coli = experiment: Binding affinity to Escherichia coli supercoiled pBR322 assessed as change in morphology of plasmid to more relaxed conformation at 50 to 100 uM by agarose gel electrophoresis
[5] = target: DNA topoisomerase 2-alpha (Homo sapiens) (UniProt P11388); experiment: Inhibition of topoisomerase 2 (unknown origin) relaxation of supercoiled pBR322 at 50 to 100 uM by agarose gel electrophoresis
[6] = target: T1, DNA topoisomerase 1 (Homo sapiens) (UniProt P11387); experiment: Inhibition of topoisomerase 1 (unknown origin) relaxation of supercoiled pBR322 at 50 to 100 uM by agarose gel electrophoresis
T1 sequence (whole entry): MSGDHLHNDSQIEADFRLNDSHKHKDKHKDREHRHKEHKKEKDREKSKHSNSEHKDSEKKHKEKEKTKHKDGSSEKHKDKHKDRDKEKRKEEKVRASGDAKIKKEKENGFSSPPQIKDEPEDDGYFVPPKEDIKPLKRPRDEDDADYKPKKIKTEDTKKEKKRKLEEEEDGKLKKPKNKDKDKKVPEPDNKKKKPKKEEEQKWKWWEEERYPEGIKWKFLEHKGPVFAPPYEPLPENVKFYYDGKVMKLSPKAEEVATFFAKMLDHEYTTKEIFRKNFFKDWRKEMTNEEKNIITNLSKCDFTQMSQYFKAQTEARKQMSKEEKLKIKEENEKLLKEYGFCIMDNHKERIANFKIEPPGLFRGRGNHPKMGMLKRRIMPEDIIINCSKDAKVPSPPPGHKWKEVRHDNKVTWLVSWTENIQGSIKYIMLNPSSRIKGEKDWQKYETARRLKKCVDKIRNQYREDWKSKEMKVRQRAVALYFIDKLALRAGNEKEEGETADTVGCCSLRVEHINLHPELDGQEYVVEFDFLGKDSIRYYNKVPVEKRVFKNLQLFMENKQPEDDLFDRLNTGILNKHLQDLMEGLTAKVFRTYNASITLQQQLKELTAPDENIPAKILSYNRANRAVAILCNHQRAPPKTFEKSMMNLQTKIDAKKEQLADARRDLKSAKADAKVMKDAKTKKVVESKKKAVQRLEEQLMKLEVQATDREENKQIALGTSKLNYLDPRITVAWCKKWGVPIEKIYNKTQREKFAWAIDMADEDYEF

Sequence of DNA topoisomerase 2-alpha (Homo sapiens) (P11388 whole entry): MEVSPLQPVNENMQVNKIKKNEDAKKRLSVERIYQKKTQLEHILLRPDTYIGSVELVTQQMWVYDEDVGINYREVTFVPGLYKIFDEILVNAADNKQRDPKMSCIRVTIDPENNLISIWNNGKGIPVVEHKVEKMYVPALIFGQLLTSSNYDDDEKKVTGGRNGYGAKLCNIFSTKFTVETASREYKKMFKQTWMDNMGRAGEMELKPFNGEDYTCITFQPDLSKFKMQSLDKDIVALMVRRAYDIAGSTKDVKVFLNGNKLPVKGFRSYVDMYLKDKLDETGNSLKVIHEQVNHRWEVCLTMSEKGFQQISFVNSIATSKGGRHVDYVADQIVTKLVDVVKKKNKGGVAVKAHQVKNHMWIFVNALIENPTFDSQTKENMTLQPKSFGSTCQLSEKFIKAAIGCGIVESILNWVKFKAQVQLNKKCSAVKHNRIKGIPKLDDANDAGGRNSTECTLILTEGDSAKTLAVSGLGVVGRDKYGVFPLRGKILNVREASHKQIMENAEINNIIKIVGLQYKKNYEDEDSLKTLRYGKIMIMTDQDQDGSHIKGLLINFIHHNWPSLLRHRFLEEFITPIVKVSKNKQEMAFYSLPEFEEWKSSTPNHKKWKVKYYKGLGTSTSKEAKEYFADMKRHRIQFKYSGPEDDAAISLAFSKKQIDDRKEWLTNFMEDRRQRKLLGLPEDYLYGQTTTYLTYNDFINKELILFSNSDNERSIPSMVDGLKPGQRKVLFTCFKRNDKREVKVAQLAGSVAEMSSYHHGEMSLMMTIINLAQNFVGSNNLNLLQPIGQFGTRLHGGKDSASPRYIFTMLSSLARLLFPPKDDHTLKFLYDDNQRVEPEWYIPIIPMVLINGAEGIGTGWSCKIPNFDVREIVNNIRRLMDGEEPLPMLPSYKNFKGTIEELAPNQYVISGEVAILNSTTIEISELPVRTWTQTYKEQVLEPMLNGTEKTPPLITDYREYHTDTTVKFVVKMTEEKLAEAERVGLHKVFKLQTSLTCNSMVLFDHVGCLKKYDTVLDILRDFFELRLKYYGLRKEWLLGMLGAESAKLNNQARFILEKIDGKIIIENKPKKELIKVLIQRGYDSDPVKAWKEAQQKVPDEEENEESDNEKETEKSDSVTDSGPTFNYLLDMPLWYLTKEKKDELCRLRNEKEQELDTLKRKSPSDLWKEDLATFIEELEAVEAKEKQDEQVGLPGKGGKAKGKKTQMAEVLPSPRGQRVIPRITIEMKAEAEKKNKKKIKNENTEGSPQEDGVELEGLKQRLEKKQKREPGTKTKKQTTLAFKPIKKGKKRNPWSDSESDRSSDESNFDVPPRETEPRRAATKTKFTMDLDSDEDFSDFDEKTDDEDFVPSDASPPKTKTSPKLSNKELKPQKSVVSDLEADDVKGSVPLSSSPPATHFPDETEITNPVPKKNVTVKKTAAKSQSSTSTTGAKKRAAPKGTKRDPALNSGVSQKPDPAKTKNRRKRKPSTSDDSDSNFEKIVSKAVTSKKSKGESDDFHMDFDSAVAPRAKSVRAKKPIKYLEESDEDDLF

Structure (SMILES) | C50 (DNA [1]) | Tm (DNA [2]) [°C] | Activity (Escherichia coli) | inhibition [5] | inhibition [6] | Activity (Caco-2 [3]) | IC50 (Caco-2 [4]) [µM] | Activity (Caco-2 [4])
COc1cccc2c1C(=O)c1c(O)c3c(c(O)c1C2=O)C[C@@](O)(C(=O)CO)C[C@@H]3O[C@H]1C[C@H](N)[C@H](O)[C@H](C)O1 [DOXORUBICIN] |  | 92 |  |  |  | inactive | 5 | 
NCCC1CN(C2N=C3c4c(O)cccc4C(=O)c4cccc(c43)O2)CCO1 (centres undefined) | inactive | 66.2 |  |  |  | inactive |  | inactive
O=C1c2cccc(O)c2C2=NC(CO)Oc3cccc1c32 (centres undefined) | inactive | 64.3 |  |  |  | inactive |  | 
NCCC1CCCCN1C1N=C2c3c(O)cccc3C(=O)c3cccc(c32)O1 (centres undefined) | 6 µM | 79.9 | Active | inactive | inactive | inactive | 16 | 

Second part, led by results:

C50 (DNA [1]) | Tm (DNA [2]) [°C] | Activity (Escherichia coli) | inhibition [5] | inhibition [6] | Structure (SMILES) | Activity (Caco-2 [3]) | IC50 (Caco-2 [4]) [µM] | Activity (Caco-2 [4])
inactive | 62.2 |  |  |  | O=C1c2cccc(O)c2C2=NC(CCCCO)Oc3cccc1c32 (centres undefined) | inactive |  | 
inactive | 57.2 |  |  |  | O=C1c2cccc(O)c2C2=NC(CCO)Oc3cccc1c32 (centres undefined) | inactive |  | 
inactive | 59.2 |  |  |  | O=C1c2cccc(O)c2C2=NC(CCCCCO)Oc3cccc1c32 (centres undefined) | inactive |  | 
inactive | 58.4 |  |  |  | O=C1c2cccc(O)c2C2=NC(CCCO)Oc3cccc1c32 (centres undefined) | inactive |  | 
